Source: patent US12351581B2, “Compounds for FGFR inhibition” (Cogent Biosciences, Inc., priority 2023, dated 2025)
Read-outs that look alike come from different tables or passages of the source.

What was measured:
FGFR2 V564F = biological target: T1, FGFR2 V564F (Homo sapiens, UniProt P21802, V564F); assay: FGFR mutant enzyme assay (HTRF KinEASE-TK); type: biochemical; conditions: ATP 1.5 uM
T1 construct: biochemical assays using purified intracellular domains of the respective isoforms; purchased SignalChem Biotech F05-12FG
T1 sequence (P21802 399-821 V564F limits assumed): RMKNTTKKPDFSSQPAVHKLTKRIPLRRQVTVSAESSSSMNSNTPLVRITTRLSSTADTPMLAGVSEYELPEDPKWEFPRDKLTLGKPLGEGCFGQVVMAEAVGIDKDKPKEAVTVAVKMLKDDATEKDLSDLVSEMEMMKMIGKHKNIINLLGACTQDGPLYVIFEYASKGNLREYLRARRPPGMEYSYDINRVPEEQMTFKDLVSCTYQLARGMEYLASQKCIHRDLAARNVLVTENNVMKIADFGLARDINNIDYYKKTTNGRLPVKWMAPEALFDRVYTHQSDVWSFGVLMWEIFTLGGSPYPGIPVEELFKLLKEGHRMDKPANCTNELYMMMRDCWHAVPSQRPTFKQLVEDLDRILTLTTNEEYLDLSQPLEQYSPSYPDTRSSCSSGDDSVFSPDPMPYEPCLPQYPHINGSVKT
Outline: (§1)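 Purified intracellular kinase domains, enzyme pre-incubated 30 min with compound (11-point 1:3 dilutions, typically 10,000-0.17 nM), then ATP plus 0.5 uM TK-peptide, 60 min at room temperature in HEPES pH7.5 with Mg2+/Mn2+. HTRF 665/615 ratio converted to percent of control; IC50 from four-parameter logistic fit.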

FGFR2 V564I = biological target: T2, FGFR2 V564I (Homo sapiens, UniProt P21802, V564I); assay: FGFR mutant enzyme assay (HTRF KinEASE-TK); type: biochemical; conditions: ATP 0.4 uM
T2 construct: biochemical assays using purified intracellular domains of the respective isoforms; purchased Carna Bioscience 08-546
T2 sequence (P21802 399-821 V564I limits assumed): as the sequence (P21802 399-821 V564F limits assumed) above, with F166I counted along it
Outline: as §1

FGFR2 N549H = biological target: T3, FGFR2 N549H (Homo sapiens, UniProt P21802, N549H); assay: FGFR mutant enzyme assay (HTRF KinEASE-TK); type: biochemical; conditions: ATP 0.9 uM
T3 construct: biochemical assays using purified intracellular domains of the respective isoforms; purchased Carna Bioscience 08-532
T3 sequence (P21802 399-821 N549H limits assumed): as the sequence (P21802 399-821 V564F limits assumed) above, with N151H, F166V counted along it
Outline: as §1

FGFR2 = biological target: T4, FGFR2 (Homo sapiens, UniProt P21802); assay: FGFR wild type enzyme assay (HTRF KinEASE-TK); type: biochemical; conditions: ATP 2 uM
T4 construct: biochemical assays using purified intracellular domains of the respective isoforms; purchased Carna Bioscience 08-134
T4 sequence (P21802 399-821 limits assumed): as the sequence (P21802 399-821 V564F limits assumed) above, with F166V counted along it
Outline: as §1

FGFR2-WT = FGFR2-WT (Homo sapiens, UniProt P21802); assay: Phosphorylated FGFR2-WT (pFGFR2-WT) cell assay, KATOIII cells; type: cell-based; conditions: 1 hour incubation, phospho FGFR2 HTRF
Sequence of FGFR2-WT (P21802 430-767 limits assumed): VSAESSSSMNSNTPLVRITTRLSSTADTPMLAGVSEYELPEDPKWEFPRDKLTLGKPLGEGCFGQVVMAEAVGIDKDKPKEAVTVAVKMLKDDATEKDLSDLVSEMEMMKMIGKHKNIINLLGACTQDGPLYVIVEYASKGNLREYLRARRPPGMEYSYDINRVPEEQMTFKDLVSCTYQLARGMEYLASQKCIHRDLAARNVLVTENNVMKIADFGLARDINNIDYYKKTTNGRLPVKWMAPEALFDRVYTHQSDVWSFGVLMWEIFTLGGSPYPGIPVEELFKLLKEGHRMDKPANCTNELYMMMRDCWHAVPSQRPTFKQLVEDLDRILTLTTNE
Outline: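 KATOIII cells treated 1 h at 37 °C with threefold compound dilutions (10 μM to 0.5 nM). Lysate phospho-FGFR2 (Tyr653/654) read by HTRF.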

[1] = compound table after the examples, read-out: Enz FGFR2

Row | SMILES | IC50 (FGFR2 V564F) [nM] | IC50 (FGFR2 V564I) [nM] | IC50 (FGFR2 N549H) [nM] | IC50 (FGFR2; Table 3, read-out: FGFR2 Enz) [nM] | IC50 (FGFR2; [1]) [nM] | IC50 (FGFR2-WT) [nM]
1 | Cc1c(-c2cc(O[C@H](C)c3ccc(F)cn3)c3c(C#N)cnn3c2)cnn1C1CCN(C(=O)[C@H](C)O)CC1 [Compound 41, 4-((R)-1-(5-fluoropyridin-2-yl)ethoxy)-6-(1-(1-((S)-2-hydroxypropanoyl)piperidin-4-yl)-5-methyl-1H-pyrazol-4-yl)pyrazolo[1,5-a]pyridine-3-carbonitrile] | 2 | 2 | 0.7 | 0.5 | 0.5 | 4
2 | Cc1c(-c2cc(O[C@H](C)c3ccc(F)cn3)c3c(C#N)cnn3c2)cnn1[C@@H]1CCC[C@@H](O)C1 [Compound 68, 4-((R)-1-(5-fluoropyridin-2-yl)ethoxy)-6-(1-((1R,3R)-3-hydroxycyclohexyl)-5-methyl-1H-pyrazol-4-yl)pyrazolo[1,5-a]pyridine-3-carbonitrile] | 3 | 4 | 1 | 1 | 1 | 8
3 | C[C@H](O)C(=O)N1CCC(n2cc(-c3cc(O[C@H](C)c4ccc(F)cn4)c4c(C#N)cnn4c3)cn2)CC1 [Compound 19, 4-((R)-1-(5-fluoropyridin-2-yl)ethoxy)-6-(1-(1-((S)-2-hydroxypropanoyl)piperidin-4-yl)-1H-pyrazol-4-yl)pyrazolo[1,5-a]pyridine-3-carbonitrile] | 0.3 | 0.4 | 0.1 | 0.15 | 0.15 | 1.25
4 | C[C@@H](Oc1cc(-c2cnn(C)c2N)cn2ncc(C#N)c12)c1ccc(F)cn1 [Compound 30, (R)-6-(5-amino-1-methyl-1H-pyrazol-4-yl)-4-(1-(5-fluoropyridin-2-yl)ethoxy)pyrazolo[1,5-a]pyridine-3-carbonitrile] | 3.7 | 6 | 2 | 1 | 1 | 9
5 | C[C@@H](Oc1cc(-c2cnn([C@H]3CCCNC3)c2N)cn2ncc(C#N)c12)c1ccc(F)cn1 [Compound 29, 6-(5-amino-1-((S)-piperidin-3-yl)-1H-pyrazol-4-yl)-4-((R)-1-(5-fluoropyridin-2-yl)ethoxy)pyrazolo[1,5-a]pyridine-3-carbonitrile] | 1.4 | 1.5 | 0.6 | 0.3 | 0.3 | 4
6 | C[C@@H](Oc1cc(-c2cnn(C3CCNCC3)c2)cn2ncc(C#N)c12)c1ccccn1 [Compound 2, (R)-6-(1-(piperidin-4-yl)-1H-pyrazol-4-yl)-4-(1-(pyridin-2-yl)ethoxy)pyrazolo[1,5-a]pyridine-3-carbonitrile] | 0.14 | 0.24 | 0.05 | 0.16 | 0.16 | 2.5
7 | Cc1c(-c2cc(O[C@H](C)c3ccc(F)cn3)c3c(C#N)cnn3c2)cnn1C1CCS(=O)(=O)CC1 [Compound 33, (R)-6-(1-(1,1-dioxidotetrahydro-2H-thiopyran-4-yl)-5-methyl-1H-pyrazol-4-yl)-4-(1-(5-fluoropyridin-2-yl)ethoxy)pyrazolo[1,5-a]pyridine-3-carbonitrile] | 2 | 3 | 0.7 | 1 | 1 | 6
8 | Cc1nn([C@H]2CCCNC2)c(C)c1-c1cc(O[C@H](C)c2ncccc2F)c2c(C#N)cnn2c1 [Compound 11, 6-(3,5-dimethyl-1-((S)-piperidin-3-yl)-1H-pyrazol-4-yl)-4-((R)-1-(3-fluoropyridin-2-yl)ethoxy)pyrazolo[1,5-a]pyridine-3-carbonitrile] | 4.4 | 5.8 | 4.6 | 1.4 | 0.5 | 23
9 | Cc1c(-c2cc(O[C@H](C)c3ccc(F)cn3)c3c(C#N)cnn3c2)cnn1[C@H]1CCCN(C(CO)CO)C1 [Compound 38, 6-(1-((S)-1-(1,3-dihydroxypropan-2-yl)piperidin-3-yl)-5-methyl-1H-pyrazol-4-yl)-4-((R)-1-(5-fluoropyridin-2-yl)ethoxy)pyrazolo[1,5-a]pyridine-3-carbonitrile] | 1 | 1.3 | 0.3 | 0.4 | 0.4 | 6
10 | C[C@@H](Oc1cc(-c2ccc(N3CC[C@H](O)[C@@H](O)C3)nc2)cn2ncc(C#N)c12)c1ccc(F)cn1 [Compound 63, 6-(6-((3S,4S)-3,4-dihydroxypiperidin-1-yl)pyridin-3-yl)-4-((R)-1-(5-fluoropyridin-2-yl)ethoxy)pyrazolo[1,5-a]pyridine-3-carbonitrile] | 1 | 1 | 0.3 | 0.3 | 0.3 | 3.3
11 | Cc1c(-c2cc(O[C@H](C)c3ccc(F)cn3)c3c(C#N)cnn3c2)cnn1[C@H]1CCCN(C(=O)[C@H](C)O)C1 [Compound 18, 4-((R)-1-(5-fluoropyridin-2-yl)ethoxy)-6-(1-((S)-1-((S)-2-hydroxypropanoyl)piperidin-3-yl)-5-methyl-1H-pyrazol-4-yl)pyrazolo[1,5-a]pyridine-3-carbonitrile] | 1 | 2 | 0.5 | 0.5 | 0.6 | 4
12 | Cc1c(-c2cc(OC(C)c3ccc(F)cn3)c3c(C#N)cnn3c2)cnn1[C@H]1CC[C@@H](O)CC1 (stereo partly drawn) [Compound 52, 4-(1-(5-fluoropyridin-2-yl)ethoxy)-6-(1-((1s,4s)-4-hydroxycyclohexyl)-5-methyl-1H-pyrazol-4-yl)pyrazolo[1,5-a]pyridine-3-carbonitrile] | 2.4 | 3 | 1 | 0.7 | 0.7 | 6
13 | Cc1c(-c2cc(O[C@H](C)c3ccc(F)cn3)c3c(C#N)cnn3c2)cnn1C1CCN(C(=O)CO)CC1 [Compound 42, (R)-4-(1-(5-fluoropyridin-2-yl)ethoxy)-6-(1-(1-(2-hydroxyacetyl)piperidin-4-yl)-5-methyl-1H-pyrazol-4-yl)pyrazolo[1,5-a]pyridine-3-carbonitrile] | 1.7 | 2 | 0.65 | 0.6 | 0.6 | 4
14 | Cc1c(-c2cc(O[C@@H](C)c3ccc(F)cn3)c3c(C#N)cnn3c2)cnn1[C@H]1CC[C@@H](O)CC1 [Compound 50, 4-((S)-1-(5-fluoropyridin-2-yl)ethoxy)-6-(1-((1s,4R)-4-hydroxycyclohexyl)-5-methyl-1H-pyrazol-4-yl)pyrazolo[1,5-a]pyridine-3-carbonitrile] | 11 | 20 | 6 | 5.5 | 5.5 | 57
15 | Cc1c(-c2cc(O[C@@H](CO)c3ccc(F)cn3)c3c(C#N)cnn3c2)cnn1[C@H]1CC[C@H](O)CC1 [Compound 66, 4-((R)-1-(5-fluoropyridin-2-yl)-2-hydroxyethoxy)-6-(1-((1r,4R)-4-hydroxycyclohexyl)-5-methyl-1H-pyrazol-4-yl)pyrazolo[1,5-a]pyridine-3-carbonitrile] | 139 | 369 | 106 | 105 | 110 | 793
